Experimental data published in patent US9232796B2, “Herbicidal compositions comprising 4-amino-3-chloro-5-fluoro-6-(4-chloro-2-fluoro-3-methoxyphenyl) pyridine-2-carboxylic acid or a derivative thereof and acetyl-CoA carboxylase (ACCase) inhibitors” (DOW AGROSCIENCES LLC, priority 2012, dated 2016).

What was measured:
Test in all cases: Example IV postemergence foliar-applied, greenhouse, cereal crops weeds
LOLMU = type: in vivo, Lolium multiflorum Lam.
Experimental: (§1) Seeds of the desired test plant species were planted in Sun Gro MetroMix® 306 planting mixture, which typically has a pH of 6.0 to 6.8 and an organic matter content of about 30 percent, in plastic pots with a surface area of 103.2 square centimeters (cm^2). When required to ensure good germination and healthy plants, a fungicide treatment and/or other chemical or physical treatment was applied. The plants were grown for 7-36 days in a greenhouse with an approximate 14 hour photoperiod which was maintained at about 18° C. during the day and about 17° C. during the night. Nutrients and water were added on a regular basis and supplemental lighting was provided with overhead metal halide 1000-Watt lamps as necessary. The plants were employed for testing when they reached the second or third true leaf stage.
(§2) Treatments consisted of the benzyl ester of 4-amino-3-chloro-5-fluoro-6-(4-chloro-2-fluoro-3-methoxy-phenyl)pyridine-2-carboxylic acid (Compound A), formulated as an SC, a second cereal herbicide alone and then both in combination.
(§3) Other herbicidal components were applied on an active ingredient basis and included acetyl-CoA carboxylase (ACCase)-inhibiting herbicides clodinafop-propargyl, fenoxaprop-P-ethyl, pinoxaden and tralkoxydim.
(§4) Measured aliquots of benzyl ester of 4-amino-3-chloro-5-fluoro-6-(4-chloro-2-fluoro-3-methoxy-phenyl)pyridine-2-carboxylic acid (Compound A) were placed in 25 milliliter (mL) glass vials and diluted in a volume of 1.25% (v/v) Agri-Dex® crop oil concentrate to obtain stock solutions. Compound requirements are based upon a 12 mL application volume at a rate of 187 liters per hectare (L/ha). Spray solutions of the second cereal herbicide and experimental compound mixtures were prepared by adding the stock solutions to the appropriate amount of dilution solution to form 12 mL spray solution with active ingredients in two- and three-way combinations. Formulated compounds were applied to the plant material with an overhead Mandel track sprayer equipped with an 8002E nozzle calibrated to deliver 187 L/ha over an application area of 0.503 square meters (m^2) at a spray height of 18 inches (46 cm) above average plant canopy. Control plants were sprayed in the same manner with the solvent blank.
(§5) The treated plants and control plants were placed in a greenhouse as described above and watered by sub-irrigation to prevent wash-off of the test compounds. After 20-22 days, the condition of the test plants as compared with that of the control plants was determined visually and scored on a scale of 0 to 100 percent where 0 corresponds to no injury and 100 corresponds to complete kill.
(§6) Colby's equation was used to determine the herbicidal effects expected from the mixtures (Colby, S. R. 1967. Calculation of the synergistic and antagonistic response of herbicide combinations. Weeds 15:20-22.).
(§7) The following equation was used to calculate the expected activity of mixtures containing two active ingredients, A and B: Expected=A+B−(A×B/100)

AVEFA = type: in vivo, Avena fatua L.
Experimental: as §1, §2, §3, §4
as §5, with “kill. […]” for “kill.”

ALOMY = type: in vivo, Alopecurus myosuroides Huds.
Experimental: as §1, §2, §3, §4
as §5, with “kill. […]” for “kill.”

APESV = type: in vivo, Apera spica-venti (L.) Beauv.
Experimental: as §1, with “When required to ensure good germination and healthy plants, a fungicide treatment and/or other chemical or physical treatment was applied.” left out
as §2, §3
as §4, with “Spray solutions of the second cereal herbicide and experimental compound mixtures were prepared by adding the stock solutions to the appropriate amount of dilution solution to form 12 mL spray solution with active ingredients in two- and three-way combinations.” left out
as §5, §6, §7

KCHSC = type: in vivo, Kochia scoparia (L.) Schrad.
How it was run: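 Greenhouse plants at second–third true leaf stage sprayed postemergence at 187 L/ha with Compound A (SC, in 1.25% v/v crop oil concentrate) alone, ACCase herbicide alone, or combined. Injury scored visually 20-22 days later, 0–100% versus solvent-sprayed controls; expected mixture effect from Colby's equation.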

[1] = Compound A Benzyl Ester 5 gai/ha
[2] = Compound A Benzyl Ester 10 gai/ha

SMILES: COc1c(Cl)ccc(-c2nc(C(=O)OCc3ccccc3)c(Cl)c(N)c2F)c1F [Compound A Benzyl Ester, benzyl ester of 4-amino-3-chloro-5-fluoro-6-(4-chloro-2-fluoro-3-methoxy-phenyl)pyridine-2-carboxylic acid]
- Visual Weed Control (%) - 21 DAA LOLMU Obs (LOLMU; [1]): 0%
- Visual Weed Control (%) - 21 DAA LOLMU Obs (LOLMU; [2]): 0%
- Visual Weed Control (%) - 21 DAA AVEFA Obs (AVEFA; [1]): 0%
- Visual Weed Control (%) - 21 DAA AVEFA Obs (AVEFA; [2]): 0%
- Visual Weed Control (%) - 21 DAA ALOMY Obs (ALOMY; [1]): 0%
- Visual Weed Control (%) - 21 DAA ALOMY Obs (ALOMY; [2]): 0%
- Visual Weed Control (%) - 21 DAA APESV Obs (APESV; [1]): 0%
- Visual Weed Control (%) - 21 DAA APESV Obs (APESV; [2]): 0%
- Visual Weed Control (%) - 21 DAA KCHSC Obs (KCHSC; [1]): 20%
- Visual Weed Control (%) - 21 DAA KCHSC Obs (KCHSC; [2]): 30%
